The target of data set [1] is T1, Prostaglandin E2 receptor EP1 subtype (Homo sapiens, UniProt P34995).
T1 sequence (P34995 whole entry): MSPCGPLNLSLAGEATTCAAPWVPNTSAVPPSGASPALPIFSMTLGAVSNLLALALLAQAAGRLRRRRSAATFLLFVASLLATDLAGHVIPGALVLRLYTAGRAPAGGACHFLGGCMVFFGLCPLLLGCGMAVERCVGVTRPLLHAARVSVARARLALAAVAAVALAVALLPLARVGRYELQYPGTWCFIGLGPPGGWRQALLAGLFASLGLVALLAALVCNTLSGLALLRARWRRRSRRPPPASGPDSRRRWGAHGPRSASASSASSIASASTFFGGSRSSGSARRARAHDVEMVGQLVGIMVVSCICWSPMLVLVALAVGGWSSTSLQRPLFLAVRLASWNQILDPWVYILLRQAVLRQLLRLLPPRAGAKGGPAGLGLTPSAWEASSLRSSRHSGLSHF
The data set is described as follows: Antagonist activity at EP1 receptor assessed as calcium mobilization by FLIPR assay. It is filed as functional.

Data set [2] has as its system Liver microsomes. The data set is described as follows: Metabolic stability assessed as intrinsic clearance per gram of human liver microsomes. Format: ADME, Microsome.
Data set [3] has as its system Liver microsomes. Kind of data set: Metabolic stability assessed as intrinsic clearance per gram of rat liver microsomes. Format: ADME, Microsome.
In the next data set the target is Cytochrome P450 2D6 (Homo sapiens, UniProt P10635). Kind of data set: Inhibition of CYP2D6. It is filed as ADME.
The next data set has as its target Cytochrome P450 2C9 (Homo sapiens, UniProt P11712). The data set is described as follows: Inhibition of CYP2C9. It is filed as ADME.
The target of another data set is Cytochrome P450 2C19 (Homo sapiens, UniProt P33261). Kind of data set: Inhibition of CYP2C19. Format: ADME.
For another data set, the target named is T2, Cytochrome P450 1A2 (Homo sapiens, UniProt P05177).
T2 sequence (P05177 whole entry): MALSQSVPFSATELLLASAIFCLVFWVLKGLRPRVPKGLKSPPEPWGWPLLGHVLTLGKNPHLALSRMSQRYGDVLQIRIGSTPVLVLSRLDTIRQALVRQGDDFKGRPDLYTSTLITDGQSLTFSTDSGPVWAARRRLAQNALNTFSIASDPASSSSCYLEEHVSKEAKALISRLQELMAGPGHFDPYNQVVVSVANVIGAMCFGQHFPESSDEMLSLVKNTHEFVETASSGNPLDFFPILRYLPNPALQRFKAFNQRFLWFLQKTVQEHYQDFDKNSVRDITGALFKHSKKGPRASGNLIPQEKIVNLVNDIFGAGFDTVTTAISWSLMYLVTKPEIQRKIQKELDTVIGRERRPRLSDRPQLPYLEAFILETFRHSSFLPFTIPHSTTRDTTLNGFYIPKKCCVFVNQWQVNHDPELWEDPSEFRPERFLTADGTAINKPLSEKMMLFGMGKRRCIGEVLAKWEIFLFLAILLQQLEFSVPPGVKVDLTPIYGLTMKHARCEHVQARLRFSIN
Kind of data set: Inhibition of CYP1A2. Format: ADME.

The target in the next data set is Cytochrome P450 3A4 (Homo sapiens, UniProt P08684). Kind of data set: Inhibition of CYP3A4. It is filed as ADME.
Data set [4] is described as follows: Ratio of drug level in rat brain to blood at 0.28 mg/kg/hr, iv for 18 hrs at steady state. It is filed as ADME, organism-based. Further details: route intravenous.
Data set [5] concerns the target T1, Prostaglandin E2 receptor EP1 subtype. The data set is described as follows: Binding affinity to EP1 receptor.

Some results are limits rather than exact numbers.

Cytochrome P450 2D6, sequence (P10635 whole entry): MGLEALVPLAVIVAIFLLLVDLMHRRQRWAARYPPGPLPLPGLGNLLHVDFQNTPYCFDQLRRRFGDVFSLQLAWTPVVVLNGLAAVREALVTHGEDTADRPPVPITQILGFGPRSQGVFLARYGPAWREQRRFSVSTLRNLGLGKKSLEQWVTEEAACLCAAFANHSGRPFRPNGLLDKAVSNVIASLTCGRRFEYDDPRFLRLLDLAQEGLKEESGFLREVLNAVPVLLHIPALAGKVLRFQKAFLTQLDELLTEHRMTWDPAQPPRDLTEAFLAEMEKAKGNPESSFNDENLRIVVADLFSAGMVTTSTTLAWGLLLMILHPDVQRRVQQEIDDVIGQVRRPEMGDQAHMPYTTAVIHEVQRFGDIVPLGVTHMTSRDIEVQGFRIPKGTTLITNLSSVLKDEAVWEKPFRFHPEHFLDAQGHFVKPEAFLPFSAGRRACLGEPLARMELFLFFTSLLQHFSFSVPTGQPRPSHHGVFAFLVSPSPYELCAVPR
Cytochrome P450 2C9, sequence (P11712 whole entry): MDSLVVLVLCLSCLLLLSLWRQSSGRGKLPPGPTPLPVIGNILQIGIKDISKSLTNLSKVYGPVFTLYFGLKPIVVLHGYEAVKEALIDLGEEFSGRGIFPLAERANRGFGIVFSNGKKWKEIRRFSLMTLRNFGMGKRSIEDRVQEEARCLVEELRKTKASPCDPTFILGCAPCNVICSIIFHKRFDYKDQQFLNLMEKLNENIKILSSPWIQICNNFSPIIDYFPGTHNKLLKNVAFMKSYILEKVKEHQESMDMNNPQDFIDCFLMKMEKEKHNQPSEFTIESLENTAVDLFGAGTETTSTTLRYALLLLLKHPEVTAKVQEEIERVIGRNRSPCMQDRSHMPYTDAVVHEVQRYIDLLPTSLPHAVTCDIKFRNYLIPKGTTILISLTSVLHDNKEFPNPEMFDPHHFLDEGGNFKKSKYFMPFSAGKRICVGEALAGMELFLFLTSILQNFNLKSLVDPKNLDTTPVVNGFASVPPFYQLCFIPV
Cytochrome P450 2C19, sequence (P33261 whole entry): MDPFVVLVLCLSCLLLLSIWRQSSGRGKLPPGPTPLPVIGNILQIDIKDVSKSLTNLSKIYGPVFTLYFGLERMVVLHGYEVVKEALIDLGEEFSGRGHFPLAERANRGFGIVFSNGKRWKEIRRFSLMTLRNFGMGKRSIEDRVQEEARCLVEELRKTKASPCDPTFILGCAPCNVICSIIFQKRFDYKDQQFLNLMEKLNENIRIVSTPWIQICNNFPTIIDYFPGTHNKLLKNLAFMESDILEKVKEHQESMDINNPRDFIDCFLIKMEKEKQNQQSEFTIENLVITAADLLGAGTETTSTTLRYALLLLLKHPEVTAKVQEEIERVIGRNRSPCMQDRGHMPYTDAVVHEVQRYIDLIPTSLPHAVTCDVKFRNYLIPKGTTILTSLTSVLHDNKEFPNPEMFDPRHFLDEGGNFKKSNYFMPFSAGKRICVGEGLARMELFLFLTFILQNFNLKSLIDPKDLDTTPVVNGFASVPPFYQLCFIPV
Cytochrome P450 3A4, sequence (P08684 whole entry): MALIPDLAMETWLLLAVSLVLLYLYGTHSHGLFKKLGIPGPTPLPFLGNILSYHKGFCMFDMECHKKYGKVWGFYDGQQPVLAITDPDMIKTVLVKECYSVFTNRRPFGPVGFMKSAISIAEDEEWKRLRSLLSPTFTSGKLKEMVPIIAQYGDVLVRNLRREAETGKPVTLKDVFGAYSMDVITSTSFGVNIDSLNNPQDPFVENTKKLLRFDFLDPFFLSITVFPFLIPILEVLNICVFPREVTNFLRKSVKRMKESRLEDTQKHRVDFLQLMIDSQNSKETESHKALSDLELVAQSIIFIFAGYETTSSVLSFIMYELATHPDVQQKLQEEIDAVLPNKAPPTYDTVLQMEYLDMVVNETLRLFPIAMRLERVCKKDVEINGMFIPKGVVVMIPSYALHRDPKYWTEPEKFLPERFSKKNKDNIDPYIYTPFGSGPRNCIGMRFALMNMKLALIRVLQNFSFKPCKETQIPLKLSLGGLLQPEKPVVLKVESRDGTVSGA

Usually Ki stands for a dissociation constant, usually derived from enzyme kinetics or from competition with a known ligand. For `O=C(O)c1cccc(-c2ccccc2-c2cc(Cl)ccc2OCc2ccccc2)c1`, the inhibition constant Ki in [1] was 31.6 nM. In addition, the figures for the CL in the data set with Liver microsomes [2] and in the data set with Liver microsomes [3] were less than 0.5 mL/min/g and “<= 0.5 ml/min/g”, respectively. By IC50 is commonly meant the point on the concentration scale where inhibition reaches its midpoint. Lower therefore signals greater potency. Usually Kp stands for tissue or fluid exposure divided by exposure in the circulation. On to `O=C(O)c1cccc(C2=C(c3cc(Cl)ccc3OCc3ccc(F)cc3F)CCC2)n1`, for which the IC50 against Cytochrome P450 2D6 is greater than 100000 nM; on Cytochrome P450 2C9, 25000 nM; at Cytochrome P450 2C19, 62000 nM; at Cytochrome P450 1A2, greater than 100000 nM; against Cytochrome P450 3A4, 89000 nM. In data set [4], the concentration ratio (Kp) at 18 h is 0.2. Consider `CC(=O)Nc1cc(C(=O)O)cc(-c2ccccc2-c2cc(Cl)ccc2OCc2ccccc2)c1`, for which the IC50 in data set [5] was 10 nM. The same measure, in the same setting: with `CCC(=O)Nc1cc(C(=O)O)cc(-c2ccccc2-c2cc(Cl)ccc2OCc2ccccc2)c1` the figure was 6.31 nM; with `CCCOc1ccc(Cl)cc1-c1ccccc1-c1cccc(C(=O)O)n1`, 251 nM. `O=C(O)c1cccc(-c2cc(Cl)ccc2-c2cc(Cl)ccc2OCc2ccccc2)c1` showed an IC50 in data set [5] greater than 1000 nM. `O=C(O)c1ccccc1-c1ccccc1-c1cc(Cl)ccc1OCc1ccccc1` showed a half-inhibitory concentration (IC50) in [5] of 20 nM.

Consider `O=C(O)c1ccc(-c2ccccc2-c2cc(Cl)ccc2OCc2ccccc2)cc1`, for which, in data set [5], the half-maximal inhibitory concentration (IC50) is 794 nM. Same read-out and setting: with `O=C(O)c1cccc(-c2ccccc2-c2cc(Cl)ccc2OCc2ccc(F)cc2)n1` the figure was 5.01 nM.

`O=C(O)c1cc(-c2ccccc2-c2ccccc2OCc2ccccc2)ccc1Cl` showed a half-inhibitory concentration (IC50) in [5] of 126 nM. As to `Cc1cccc(-c2cc(Cl)ccc2OCc2ccccc2)c1-c1cccc(C(=O)O)c1`, the IC50 in [5] was 100 nM.

Compound `CC(C)C(=O)Nc1cc(C(=O)O)cc(-c2ccccc2-c2cc(Cl)ccc2OCc2ccccc2)c1` gave an IC50 in data set [5] of 10 nM.

`COCC(=O)Nc1cc(C(=O)O)cc(-c2ccccc2-c2cc(Cl)ccc2OCc2ccccc2)c1` gave an IC50 in data set [5] of 3.98 nM.

The compound `O=C(O)c1cccc(-c2ccccc2-c2cc(Cl)ccc2OCC2CCCC2)n1` showed an IC50 in [5] of 158 nM. Still for that read-out and setting: in the case of `O=C(O)c1ccc(F)c(-c2ccccc2-c2ccccc2OCc2ccccc2)c1` it was 79.4 nM; in that of `O=C(O)c1cccc(-c2ccccc2-c2cc(Cl)ccc2OCc2ccccc2F)n1`, 39.8 nM; in that of `O=C(O)c1cccc(-c2ccccc2-c2ccc(Cl)cc2OCc2ccccc2)c1`, 316 nM.

Turning to `Cc1ccc(-c2cccc(C(=O)O)c2)c(-c2cc(Cl)ccc2OCc2ccccc2)c1`, the concentration for half-maximal inhibition (IC50) in data set [5] is greater than 1000 nM.

On to `Cc1ccc(-c2cc(Cl)ccc2OCc2ccccc2)c(-c2cccc(C(=O)O)c2)c1`, for which, in [5], the IC50 was greater than 1000 nM.

In data set [5], `O=C(O)c1cccc(-c2ccccc2-c2cc(Cl)ccc2OCc2c(F)cc(F)cc2F)n1` showed a half-maximal inhibitory concentration (IC50) of 12.6 nM. `O=C(O)c1cccc(-c2ccccc2-c2cc(Cl)ccc2OCc2ccc(Br)cc2F)n1`: the IC50 in data set [5] was 50.1 nM.

On to `O=C(O)c1cccc(-c2ccccc2-c2cc(Cl)ccc2OCc2ccc(Cl)cc2F)n1`, for which, in data set [5], the IC50 is 20 nM.

Consider `CCCCOc1ccc(Cl)cc1-c1ccccc1-c1cccc(C(=O)O)n1`, for which the IC50 in data set [5] was 100 nM. The compound `O=C(O)c1cccc(-c2ccccc2-c2cc(Cl)ccc2OCc2ccc(F)cc2Cl)n1` gave a half-inhibitory concentration (IC50) in data set [5] of 63.1 nM.

The compound `O=C(O)c1cc(F)cc(-c2ccccc2-c2ccccc2OCc2ccccc2)c1` showed a 50% inhibitory concentration (IC50) in [5] of 63.1 nM. Consider `O=C(O)c1cccc(-c2ccccc2-c2cc(Cl)ccc2OCc2ccc(F)cc2F)n1`, for which, in data set [5], the IC50 is 3.98 nM. `Cc1c(C(=O)O)cccc1-c1ccccc1-c1ccccc1OCc1ccccc1` had an IC50 in data set [5] of 501 nM. Consider `O=C(O)c1cccc(-c2ccccc2-c2cc(Cl)ccc2OCc2ccccc2)n1`, for which the 50% inhibitory concentration (IC50) in [5] is 10 nM. On to `CCCC(=O)Nc1cc(C(=O)O)cc(-c2ccccc2-c2cc(Cl)ccc2OCc2ccccc2)c1`, for which the IC50 in [5] was 2 nM. On the same count and under the same terms, with `O=C(O)c1cccc(-c2ccccc2-c2ccccc2OCc2ccccc2)c1` the figure was 20 nM.

The values above are taken from ChEMBL document CHEMBL1154508, “Discovery of GSK345931A: An EP(1) receptor antagonist with efficacy in preclinical models of inflammatory pain” (Bioorg Med Chem Lett, 2009).
